This is an account of results in patent publication US20080214589A1, “Thrombin Inhibiting 2,4-Dioxo-3,4-Dihydropyrimidine Derivatives” (ASTRAZENECA AB, priority 2005, published 2008).

This assay has as its target T1, Human a-thrombin (Homo sapiens, UniProt P00734).
T1 construct: Human a-thrombin, Sigma Chemical Co. or Hematologic Technologies; purchased Sigma Chemical Co. or Hematologic Technologies
Put plainly: Test B: thrombin inhibition with a chromogenic, robotic assay. The note with it: chromogenic substrate S-2366, 40 minutes incubation at 37° C. It is filed as biochemical. The method, then:
Determination of Thrombin Inhibition with a Chromogenic, Robotic Assay
The thrombin inhibitor potency is measured with a chromogenic substrate method, in a Plato 3300 robotic microplate processor (Rosys AG, CH-8634 Hombrechtikon, Switzerland), using 96-well, half volume microtitre plates (Costar, Cambridge, Mass., USA; Cat No 3690). Stock solutions of test substance in DMSO (72 μL), 0.1-1 mmol/L, are diluted serially 1:3 (24+48 μL) with DMSO to obtain ten different concentrations, which are analysed as samples in the assay. 2 μL of test sample is diluted with 124 μL assay buffer, 12 μL of chromogenic substrate solution (S-2366, Chromogenix, Mölndal, Sweden) in assay buffer and finally 12 μL of a-thrombin solution (Human a-thrombin, Sigma Chemical Co. or Hematologic Technologies) in assay buffer, are added, and the samples mixed. The final assay concentrations are: test substance 0.00068-133 μmol/L, S-2366 0.30 mmol/L, a-thrombin 0.020 NIHU/mL. The linear absorbance increment during 40 minutes incubation at 37° C. is used for calculation of percentage inhibition for the test samples, as compared to blanks without inhibitor. The IC50-robotic value, corresponding to the inhibitor concentration which causes 50% inhibition of the thrombin activity, is calculated from a log concentration vs. % inhibition curve.

With `Cc1cc(=O)n(NCC(F)(F)c2ccccn2)c(=O)n1CC(=O)NCc1cc(Cl)ccc1CN` [Example 2, N-[2-(Aminomethyl)-5-chlorobenzyl]-2-[3-[(2,2-difluoro-2-pyridin-2-ylethyl)-amino]-6-methyl-2,4-dioxo-3,4-dihydropyrimidin-1(2H)-yl]acetamide], the IC50 stood at 32.7 nM.

Take `Cc1cc(N)nc(C)c1CNC(=O)Cn1c(C)cc(=O)n(NCC(F)(F)c2ccccn2)c1=O` [5(a), N-[(6-Amino-2,4-dimethylpyridin-3-yl)methyl]-2-[3-[(2,2-difluoro-2-pyridin-2-ylethyl)amino]-6-methyl-2,4-dioxo-3,4-dihydropyrimidin-1(2H)-yl]acetamide]: the IC50 came to 169 nM.
